According to paper PMC8968665, “Verteporfin is a substrate-selective γ-secretase inhibitor that binds the amyloid precursor protein transmembrane domain” (The Journal of Biological Chemistry, 2022):

How the values were obtained:
[1] = molecular target: T1, γ-secretase cleavage of C100-Flag (C99) (Homo sapiens, UniProt P05067); experiment: γ-Secretase assay, C100-FLAG cleavage, AICD by anti-Flag Western blot; assay type: biochemical; details: 30 nM LY411,575, 2 µM C100-Flag, 1 nM γ-secretase, Fig. S6A lane 7
T1 construct: C100 is C99 with an added N-terminal Met residue; made in house
T1 sequence (P05067 672-770 limits assumed): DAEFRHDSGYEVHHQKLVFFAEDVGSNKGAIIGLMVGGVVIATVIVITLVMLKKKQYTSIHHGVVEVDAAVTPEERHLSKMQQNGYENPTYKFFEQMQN
Experimental: The γ-secretase-dependent proteolysis assays with both substrates (C100-FLAG and HexaHis Notch 1 JM/TM) were performed in a weak zwitterionic detergent (CHAPSO, 3-[(3- cholamidopropyl)dimethylammonio]-2-hydroxy-1-propanesulfonate) solubilized conditions ([79], [80]). C100 is C99 with an added N-terminal Met residue. […] Proteolytic reactions were initiated by adding purified substrates (either C100-FLAG(79) or HexaHis-Notch 1 JM/TM(77)) and incubating at 37 °C (16 h for C100Flag and 4 h for HexaHis-Notch 1 JM/TM). Reactions were quenched with SDS, and the cleaved intracellular domain products (AICD-FLAG released from C100-FLAG or truncated intracellular domain (NICD) released from the proteolysis of Hexa-His Notch 1 JM/TM) were visualized by Western blot using specific primary antibodies, anti-FLAG antibody for FLAG-tagged AICD, and neoepitope-specific anti-V1744 antibody for NICD ([80], [83], [84]).

[2] = molecular target: C99 (C-terminal 99 amino acid fragment of the human amyloid precursor protein), as used for IM-MS (human) (UniProt P05067); experiment: native MS; native ion mobility-mass spectrometry (IM-MS); 20 uM C99 in 100X CMC LMPG or DDMB micelles, 200 mM ammonium acetate pH 4.5; DMSO or 0-50 uM verteporfin, incubated in the dark overnight; micelles dissociated in the instrument

Sequence of C99 (C-terminal 99 amino acid fragment of the human amyloid precursor protein), as used for IM-MS (P05067 672-770): as the sequence (P05067 672-770 limits assumed) above

Row | Compound | C100-Flag cleavage efficiency (Western blot) [1] | stoichiometry N [2]
1 | C[C@H](NC(=O)[C@@H](O)c1cc(F)cc(F)c1)C(=O)N[C@@H]1C(=O)N(C)c2ccccc2-c2ccccc21 [LY411,575] | fully | 
2 | C99 (C-terminal 99 amino acid fragment of the human amyloid precursor protein), as used for IM-MS (from UniProt P05067 672-770) (domain or fragment) |  | 2
